Results reported in article PMC9457600, “Synthesis, Leishmanicidal, Trypanocidal, Antiproliferative Assay and Apoptotic Induction of (2-Phenoxypyridin-3-yl)naphthalene-1(2H)-one Derivatives” (Molecules, 2022).

Legend:
VERO cells = assay: MTT cytotoxicity on VERO cells; assay type: cell-based, African green monkey; details: Chlorocebus sabaeus, 72 h
Procedure: (§1) Vero cells were derived from the kidney of an African green monkey, cells were maintained in Dulbecco’s Modified Eagle’s Medium (DMEM), supplemented with 10% heat-inactivated FBS and penicillin-streptomycin solution 1% at 37 °C, 5% CO2 atmosphere and > 95% humidity. We evaluated through a colorimetric method the effect of compounds 8–23 on the promastigotes of L. brasiliensis. Briefly, 96-well plates were used, where 2 × 10^6 parasites/mL were seeded. A concentration of 50 μM was used for each compound and an incubation time of 96 h at 29 °C. 3-(4,5-dimethylthiazol-2-yl)-2,5-diphenyl tetrazolium bromide (MTT) 1 μg/mL was added and incubated in darkness for 4 h, acidic isopropanol (4N) was added and the plate was read at 570 nm in a spectrophotometer Synergy HT (Biotek). Miltefosine was used as a reference drug. The EC50 calculation of the selected compound was performed using growth curves. Direct counting was used to monitor the proliferation of parasites, three independent experiments were performed for each concentration of the compounds evaluated. The in vitro evaluations of compounds toxicity by MTT in VERO and BMDM cells follow a methodology described above with some modifications. The selectivity index was calculated with SI = CC50/EC50, where CC50 was the maximum concentration range of compounds 10, 21–23 used to evaluate cytotoxicity in VERO and BMDM cells. The trypanocidal activity of compounds 8–23 was evaluated on the viability of T. cruzi epimastigotes through a colorimetric method adapted with minor modifications. 2 × 10^6 parasites/mL were seeded in a 96-well plate, adding 50 μM of each derivative dissolved in DMSO (final concentration remained below 1%). The plate was incubated for 96 h at 29 °C. Then, 1 μg/mL of 3-(4,5-dimethylthiazol-2-yl)-2,5-diphenyl tetrazolium bromide (MTT) was added and incubated in darkness for 4 h. After this time, acidic isopropanol (4N) was added and the plate was read at 570 nm in a spectrophotometer Synergy HT (Biotek). Benznidazole was used as a reference drug. The in vitro evaluations of compounds toxicity by MTT in VERO and BMDM cells follow a methodology described above with some modifications. Cells were counted in suspension and seeded at 20 × 10^3 cells/well. The test was carried out in triplicate on 96-well microplates in different concentrations: 50 μM, 100 μM, 200 μM and 300 μM, untreated cells and reference drug (benznidazole) controls.

[1] = tested on: epimastigotes of Trypanosoma cruzi strain MHOM/VE/92/YBM; assay: MTT viability of T. cruzi epimastigotes; assay type: cell-based; details: for EC50: 72 h, epimastigotes
A549 = assay: MTS antiproliferative assay A549; assay type: cell-based, human; details: Homo sapiens, A549, 72 h, 72 h of incubation
Description: (§2) The cell lines used were acquired from the American Type Culture Collection (ATCC), CCRF-CEM (T lymphoblastic leukemia), K562 ([…]), U2OS (osteosarcoma), HCT116 (colon carcinoma), A549 (lung adenocarcinoma) and HCT116p53−/− (HCT116 cell line mutated in p53) Horizon Discovery Ltd., (Waterbeach, Cambridge, United Kingdom).
(§3) In our laboratory, IMTM, we generated the daunorubicin-resistant subline of CCRF-CEM cells (CEM-DNR bulk) and paclitaxel-resistant subline K562-TAX, as described previously. […] Both ABC transporters are involved in drug resistance. As a control, human fibroblasts MRC-5 and BJ cell lines were used. […] Adherent cells were passaged using PBS containing 0.25% trypsin plus 0.01% EDTA (ethylenediamine tetraacetic acid) every 2–3 days.
(§4) The antiproliferative activity of compounds was determined using a standard 3-(4,5-dimethylthiazol-2yl)-5-(3-carboxymethoxyphenyl)-2-(4-sulfophenyl)-2H-tetrazolium (MTS) reduction assay on a robotic high throughput screening platform (HighResBio, Boston, MA, USA) following treatment of cells for 3–7 days. The IC50 values were calculated from the appropriate dose–response curves with Dotmatics software (San Diego, CA, USA).

K562 = assay: MTS antiproliferative assay K562; assay type: cell-based, human; details: Homo sapiens, K562, 72 h, 72 h of incubation
Description: as §2, §3, §4

CEM-DNR = assay: MTS antiproliferative assay CEM-DNR; assay type: cell-based; details: Homo sapiens, 72 h of incubation, daunorubicin-resistant
Description: as §2, §3, §4

CCRF-CEM = assay: MTS antiproliferative assay CCRF-CEM; assay type: cell-based; details: Homo sapiens, 72 h of incubation
Description: as §2, §3, §4

MRC-5 = assay: MTS assay on non-malignant MRC-5; assay type: cell-based; details: MRC5; noncancerous human cell line
Procedure: as §3, §4

HCT-116 = assay: MTS antiproliferative assay HCT116; assay type: cell-based; details: Homo sapiens, 72 h of incubation
Description: as §2, §3, §4

BMDM macrophages = assay: MTT cytotoxicity on BMDM macrophages; assay type: cell-based; details: Mus musculus, 72 h
Description: as §1, with “T. cruzi epimastigotes MHOM/VE/92/YBM venezuelan strain” for “Vero cells”, “used to test” for “derived from”, “anti T. cruzi in vitro studies. The strain was” for “kidney of an African green monkey, cells were”, “a modified LIT medium” for “Dulbecco’s Modified Eagle’s Medium (DMEM), supplemented”, “fetal bovine serum (FBS). Mouse bone marrow was used to obtain BMDM macrophages. Mouse fibroblast-conditioned medium L-929 was used for the differentiation” for “heat-inactivated FBS”, “maintenance of BMDM macrophages.” for “penicillin-streptomycin solution 1% at 37 °C, 5% CO2 atmosphere and > 95% humidity.”

BJ = assay: MTS assay on non-malignant BJ; assay type: cell-based; details: noncancerous human cell line
Procedure: as §3, §4

HCT116p53−/− = assay: MTS antiproliferative assay HCT116p53-/-; assay type: cell-based; details: Homo sapiens; 72 h of incubation
Description: as §2, §3, §4

K562-TAX = assay: MTS antiproliferative assay K562-TAX; assay type: cell-based, human; details: Homo sapiens, K562-Tax, 72 h, 72 h of incubation; paclitaxel-resistant
Description: as §2, §3, §4

[2] = tested on: promastigotes of Leishmania (V.) braziliensis strain MHOM/CO/87/UA301; assay: MTT viability of L. braziliensis promastigotes; assay type: cell-based
Procedure: Promastigotes of Leishmania (V.) braziliensis strain MHOM/CO/87/UA301 were isolated from footpad lesions in Balb/C mice previously infected. In the process of maintenance and differentiation of the parasites, the LTI medium (tryptose 15 g/L, yeast extract 5 g/L, liver extract 2 g/L, hemin-NaOH 0.02 g/L, glucose 4 g/L, NaCl 9 g/L, KCl 0.4 g/L Na2HPO4, 7.5 g/L at pH 7.4) supplemented with 10% fetal calf serum and maintained at 29 °C was used.
Briefly, 96-well plates were used, where 2 × 10^6 parasites/mL were seeded. A concentration of 50 μM was used for each compound and an incubation time of 96 h at 29 °C. 3-(4,5-dimethylthiazol-2-yl)-2,5-diphenyl tetrazolium bromide (MTT) 1 μg/mL was added and incubated in darkness for 4 h, acidic isopropanol (4N) was added and the plate was read at 570 nm in a spectrophotometer Synergy HT (Biotek). Miltefosine was used as a reference drug. The EC50 calculation of the selected compound was performed using growth curves. Direct counting was used to monitor the proliferation of parasites, three independent experiments were performed for each concentration of the compounds evaluated. The in vitro evaluations of compounds toxicity by MTT in VERO and BMDM cells follow a methodology described above with some modifications [60].

U2OS = assay: MTS antiproliferative assay U2OS; assay type: cell-based; details: Homo sapiens, 72 h of incubation
Description: as §2, §3, §4

Compound	EC50 (VERO cells) [µM]	EC50 ([1]; Trypanosoma cruzi) [µM]	IC50 (A549) [µM]	IC50 (K562) [µM]	IC50 (CEM-DNR) [µM]	IC50 (CCRF-CEM) [µM]	IC50 (MRC-5) [µM]	IC50 (HCT-116) [µM]	EC50 (BMDM macrophages) [µM]	IC50 (BJ) [µM]	IC50 (HCT116p53−/−) [µM]	IC50 (K562-TAX) [µM]	EC50 ([2]; 72 h, promastigotes) [µM]	EC50 ([2]; promastigotes, 72 h) [µM]	IC50 (U2OS) [µM]	melting point [°C]	other results
O=C(Cn1ccnc1[N+](=O)[O-])NCc1ccccc1 [Bnz, benznidazole, reference compound]	120 ± 2.3	30 ± 0.7	–	–	–	–	–	–	–	–	–	–	–	–	–	–	SIV/Tc selectivity index on T. cruzi/VERO ([1]; SI = CC50/EC50): 4
O=C1/C(=C/c2cccnc2Oc2ccccc2)CCc2ccccc21 [Compound 8, (E)-3,4-Dihydro-2-[(2-phenoxypyridin-3-yl)methylene]naphthalen-1(2H)-one]	> 100	> 60	> 50	> 50	38.2 ± 6.26	4.15 ± 0.74	> 50	> 50	> 1000	> 50	> 50	20 ± 2.16	≤ 60	57.6 ± 1.62	> 50	–	–
COc1cccc2c1CC/C(=C\c1cccnc1Oc1ccccc1)C2=O [Compound 9, (E)-3,4-Dihydro-5-methoxy-2-[(2-phenoxypyridin-3-yl)methylene]naphthalen-1(2H)-one]	< 100	> 60	30 ± 5.83	19.6 ± 3.67	26.3 ± 7.95	6.15 ± 0.84	> 50	24.8 ± 3.77	> 1000	> 50	20.2 ± 3.1	24.1 ± 6.02	≥ 60	> 60	19.6 ± 3.65	–	–
COc1ccc2c(c1)CC/C(=C\c1cccnc1Oc1ccccc1)C2=O [Compound 10, (E)-3,4-Dihydro-6-methoxy-2-[(2-phenoxypyridin-3-yl)methylene]naphthalen-1(2H)-one]	89 ± 15	> 60	> 50	44.6 ± 3.67	33.7 ± 6.78	13.2 ± 1.82	> 50	> 50	< 1000	> 50	> 50	30.1 ± 7.28	–	–	> 50	134	SIV/Lb selectivity index on L. braziliensis/VERO ([2]; SI = CC50/EC50): 4
COc1ccc2c(c1)C(=O)/C(=C/c1cccnc1Oc1ccccc1)CC2 [Compound 11, (E)-3,4-Dihydro-7-methoxy-2-[(2-phenoxypyridin-3-yl)methylene]naphthalen-1(2H)-one]	< 100	> 60	> 50	> 50	45.1 ± 7.9	8.79 ± 0.76	> 50	> 50	< 1000	> 50	> 50	> 50	≥ 60	> 60	> 50	136	–
O=C1/C(=C/c2cccnc2Oc2ccc(Cl)cc2)CCc2ccccc21 [Compound 20, (E)-2-{[2-(4-Chlorophenoxy)pyridin-3-yl]methylene}-3,4-dihydronaphthalen-1(2H)-one]	> 1000	< 60	37 ± 3.98	23.6 ± 2.55	28.2 ± 4.83	6.07 ± 0.63	> 50	26.2 ± 2.4	> 1000	> 50	25.6 ± 3.77	32.5 ± 2.93	≥ 60	> 60	27.9 ± 4.13	130	EC50 [1]: 57.4 ± 3.6 µM
COc1cccc2c1CC/C(=C\c1cccnc1Oc1ccc(Cl)cc1)C2=O [Compound 21, (E)-2-{[2-(4-Chlorophenoxy)pyridin-3-yl]methylene}-3,4-dihydro-5-methoxynaphthalen-1(2H)-one]	103 ± 15	< 60	46.9 ± 4.02	32.7 ± 3.67	35.8 ± 4.25	10.4 ± 2.46	> 50	38.1 ± 5.44	> 1000	> 50	31.1 ± 4.45	23.6 ± 8.79	9.24 ± 1	–	46.8 ± 4.26	–	EC50 [1]: 35.5 ± 10 µM
COc1ccc2c(c1)C(=O)/C(=C/c1cccnc1Oc1ccc(Cl)cc1)CC2 [Compound 23, (E)-2-{[2-(4-Chlorophenoxy)pyridin-3-yl]methylene}-3,4-dihydro-7-methoxynaphthalen-1(2H)-one]	100 ± 16	4.91 ± 0.98	> 50	> 50	23.9 ± 4.98	15.7 ± 1.54	> 50	> 50	> 1000	> 50	> 50	16.1 ± 4.44	5.69 ± 2.65	–	> 50	160	SIB/Lb selectivity index on L. braziliensis/BMDM ([2]; SI = CC50/EC50): 176; SIV/Lb selectivity index on L. braziliensis/VERO ([2]; SI = CC50/EC50): 18; SIV/Tc selectivity index on T. cruzi/VERO ([1]; SI = CC50/EC50): 20; selectivity index T. cruzi vs BMDM (CC50/EC50) ([1]; SI = CC50/EC50): > 204
CCCCCCCCCCCCCCCCOP(=O)([O-])OCC[N+](C)(C)C [Mil, miltefosine, reference compound]	–	–	–	–	–	–	–	–	125 ± 4.7	–	–	–	25 ± 1.4	–	–	–	SIB/Lb selectivity index on L. braziliensis/BMDM ([2]; SI = CC50/EC50): 5
